How the values were obtained:
Adenosine A2a receptor = target: T1, Adenosine A2a receptor (Homo sapiens, UniProt P29274); assay: Adenosine receptor TR-FRET binding assay, A2a; settings: displacement of 100 nM CA200645, CHO cell membranes
T1 construct: expressed in transfected cells; host or cells: CHO cell membranes
Procedure: (§1) All FRET binding experiments were conducted at room temperature in white 384-well plates, in assay binding buffer containing 1× LabMed (Cisbio, France), 100 μg/mL saponin, 1% DMSO and 0.02% pluronic acid. Binding of the fluorescently labelled Adenosine receptor antagonist XAC (CA200645, FRET acceptor) to terbium-labelled A1, A2a, A2b and A3 adenosine receptors (FRET donors) was detected by time-resolved FRET due to the close proximity of the donor and acceptor in a binding event. To investigate the ability of unlabelled test compounds to bind to Adenosine A1, A2a, A2b and A3 receptors, dose response curves were constructed that determined the ability of a range of concentrations to inhibit the binding of 30 nM CA200645 to the A2b receptor and 100 nM CA200645 to the A1, A2a, and A3 receptor.
(§2) Serial dilution (1:3 dilutions) of test compounds in neat DMSO and transfer of a 400 nL sample of test compound into the assay plate was carried out using the Mosquito (TTP Labtech, UK). The compound samples were incubated for 2 hours at room temperature with a fixed concentration of CA200645 defined for each receptor (see above) and CHO cell membranes containing the human Adenosine A1 (0.5 μg/well), A2a (0.3 μg/well), A2b (1 μg/well) or A3 (1 μg/well) receptor in 40 μL of assay buffer. Total and non-specific binding of CA200645 was determined in the absence and presence of 10 μM XAC, respectively.
(§3) Following 2 hours incubation, the level of CA200645 binding was detected on a Pherastar FSX (BMG Labtech, Germany) using standard TR-FRET settings. The terbium donor was excited with three laser flashes at a wavelength of 337 nm, and donor and acceptor emission was detected at 620 nm and 665 nm wavelengths, respectively. FRET ratios were obtained by multiplying the acceptor/donor ratio value by 10,000. Specific binding was determined by subtracting the non-specific binding FRET ratio from the total binding FRET ratio. Compound IC50 curves were analysed using GraphPad Prism 7.0 (GraphPad, USA) and Ki affinity values were determined from the obtained […] values using the method of Cheng and Prusoff.

Adenosine A2b receptor = target: T2, Adenosine A2b receptor (Homo sapiens, UniProt P29275); assay: Adenosine receptor TR-FRET binding assay, A2b; settings: Table 9, further testing; displacement of 30 nM CA200645, CHO cell membranes
T2 construct: expressed in transfected cells; host or cells: CHO cell membranes
T2 sequence (P29275 1-332): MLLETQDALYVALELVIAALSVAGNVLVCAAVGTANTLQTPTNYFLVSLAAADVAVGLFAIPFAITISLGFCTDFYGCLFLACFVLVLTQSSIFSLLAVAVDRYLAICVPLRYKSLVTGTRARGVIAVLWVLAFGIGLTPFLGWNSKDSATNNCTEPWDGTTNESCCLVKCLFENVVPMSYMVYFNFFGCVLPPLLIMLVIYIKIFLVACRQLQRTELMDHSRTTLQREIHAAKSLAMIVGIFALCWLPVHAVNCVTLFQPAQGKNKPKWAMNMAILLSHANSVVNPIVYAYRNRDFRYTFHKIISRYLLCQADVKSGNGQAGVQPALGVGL
Procedure: as §1, §2, §3

Adenosine A3 receptor = target: T3, Adenosine A3 receptor (Homo sapiens, UniProt P0DMS8); assay: Adenosine receptor TR-FRET binding assay, A3; settings: Table 9, further testing; displacement of 100 nM CA200645, CHO cell membranes; read-out: A3 Ki
T3 construct: expressed in transfected cells; host or cells: CHO cell membranes
T3 sequence (P0DMS8 1-318): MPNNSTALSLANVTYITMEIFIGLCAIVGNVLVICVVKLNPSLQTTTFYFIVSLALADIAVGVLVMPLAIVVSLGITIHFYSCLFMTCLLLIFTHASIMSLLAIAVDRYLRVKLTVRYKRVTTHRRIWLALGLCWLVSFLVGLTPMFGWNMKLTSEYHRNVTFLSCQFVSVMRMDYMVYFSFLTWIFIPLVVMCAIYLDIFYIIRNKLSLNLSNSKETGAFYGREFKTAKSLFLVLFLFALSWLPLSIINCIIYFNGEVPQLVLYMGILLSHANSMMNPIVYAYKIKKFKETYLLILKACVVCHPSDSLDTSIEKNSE
Procedure: as §1, §2, §3

Adenosine A1 receptor = target: T4, Adenosine A1 receptor (Homo sapiens, UniProt P30542); assay: Adenosine receptor TR-FRET binding assay, A1; settings: Table 9, further testing; displacement of 100 nM CA200645, CHO cell membranes
T4 construct: expressed in transfected cells; host or cells: CHO cell membranes
T4 sequence (P30542 1-326): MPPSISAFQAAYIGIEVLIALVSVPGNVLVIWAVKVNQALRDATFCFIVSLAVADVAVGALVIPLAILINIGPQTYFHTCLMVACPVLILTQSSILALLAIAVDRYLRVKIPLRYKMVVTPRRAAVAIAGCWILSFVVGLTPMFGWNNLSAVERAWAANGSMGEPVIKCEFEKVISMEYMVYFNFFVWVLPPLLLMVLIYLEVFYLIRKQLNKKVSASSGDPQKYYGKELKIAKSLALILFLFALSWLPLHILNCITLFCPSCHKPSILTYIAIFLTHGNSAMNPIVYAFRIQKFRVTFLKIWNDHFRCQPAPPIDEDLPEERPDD
Procedure: as §1, §2, §3

T1 sequence (P29274 whole entry): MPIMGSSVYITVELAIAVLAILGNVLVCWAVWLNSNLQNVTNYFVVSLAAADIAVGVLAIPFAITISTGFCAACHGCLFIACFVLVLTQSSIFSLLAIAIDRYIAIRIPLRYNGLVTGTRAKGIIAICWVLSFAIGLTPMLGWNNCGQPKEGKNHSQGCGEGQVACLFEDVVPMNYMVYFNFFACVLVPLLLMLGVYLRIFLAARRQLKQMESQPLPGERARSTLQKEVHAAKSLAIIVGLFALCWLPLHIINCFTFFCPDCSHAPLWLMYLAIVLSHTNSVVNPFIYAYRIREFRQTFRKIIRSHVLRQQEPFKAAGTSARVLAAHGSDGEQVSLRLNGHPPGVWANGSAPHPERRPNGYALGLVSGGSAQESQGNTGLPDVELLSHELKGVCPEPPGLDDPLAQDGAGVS

Row | Ki (Adenosine A2a receptor; Table 8, Cheng and Prusoff) [nM] | Ki (Adenosine A2a receptor; Table 9, further testing) [nM] | Ki (Adenosine A2b receptor) [nM] | Ki (Adenosine A3 receptor) [nM] | Ki (Adenosine A1 receptor) [nM] | SMILES
1 | 21 | 21 | 679 | – | – | CCOc1cccnc1CNC(=O)c1cnc(-c2cccc(F)c2)nc1N [Example 5.8, 4-Amino-N-[(3-ethoxy-2-pyridyl)methyl]-2-(3-fluorophenyl)pyrimidine-5-carboxamide]
2 | 76 | 76 | 195 | – | – | Nc1nc(-c2cccc(F)c2)ncc1C(=O)NCc1ccccn1 [Example 5.9, 4-Amino-2-(3-fluorophenyl)-N-(2-pyridylmethyl)pyrimidine-5-carboxamide]
3 | 150 | 150 | 10000 | – | – | Cc1ccccc1CNC(=O)c1cnc(-c2cccc(F)c2)nc1N [Example 5.10, 4-Amino-2-(3-fluorophenyl)-N-(o-tolylmethyl)pyrimidine-5-carboxamide]
4 | 33 | 33 | 6630 | 1820 | – | Nc1nc(-c2ccco2)ncc1C(=O)NCc1ccc(F)cc1 [Example 5.14, 4-Amino-N-[(4-fluorophenyl)methyl]-2-(2-furyl)pyrimidine-5-carboxamide]
5 | 24 | 24 | – | 3050 | 1890 | Nc1nc(-c2ccco2)ncc1C(=O)NCc1cc(F)cc(F)c1 [Example 5.17, 4-Amino-N-[(3,5-difluorophenyl)methyl]-2-(2-furyl)pyrimidine-5-carboxamide]
6 | 298 | 298 | – | 5780 | 5660 | Nc1nc(-c2ccco2)ncc1C(=O)NCc1ccc(C(F)(F)F)cc1 [Example 5.28, 4-amino-2-(2-furyl)-N-[[4-(trifluoromethyl)phenyl]methyl]pyrimidine-5-carboxamide]
7 | – | 1.2 | 4220 | – | 1530 | COc1cccc(OC)c1CNC(=O)c1cnc(-c2ccco2)nc1N [Example 5.31, 4-Amino-N-[(2,6-dimethoxyphenyl)methyl]-2-(2-furyl)pyrimidine-5-carboxamide]
8 | – | 9.4 | 6680 | – | – | CC(C)n1ccnc1CNC(=O)c1cnc(-c2ccco2)nc1N [Example 5.33, 4-Amino-2-(2-furyl)-N-[(1-isopropylimidazol-2-yl)methyl]pyrimidine-5-carboxamide]
9 | – | 14 | 970 | – | 2660 | Nc1nc(-c2ccco2)ncc1C(=O)NCc1cc2ccccc2cn1 [Example 5.36, 4-Amino-2-(2-furyl)-N-(3-isoquinolylmethyl) pyrimidine-5-carboxamide]
10 | – | 16 | 1600 | – | – | Cn1ccnc1CNC(=O)c1cnc(-c2ccco2)nc1N [Example 5.37, 4-Amino-2-(2-furyl)-N-[(1-methylimidazol-2-yl)methyl]pyrimidine-5-carboxamide]
11 | – | 20 | 2360 | – | – | COc1cccc(CNC(=O)c2cnc(-c3ccco3)nc2N)c1OC [Example 5.38, 4-Amino-N-[(2,3-dimethoxyphenyl)methyl]-2-(2-furyl)pyrimidine-5-carboxamide]
12 | – | 52 | 1090 | – | 4740 | Nc1nc(-c2ccco2)ncc1C(=O)NCc1ccc2[nH]ccc2c1 [Example 5.41, 4-Amino-2-(2-furyl)-N-(1H-indol-5-ylmethyl) pyrimidine-5-carboxamide]
13 | – | 78 | – | 1090 | 364 | Nc1nc(-c2ccco2)ncc1C(=O)NCc1cc(F)cc(C(F)(F)F)c1 [Example 5.44, 4-Amino-N-[[3-fluoro-5-(trifluoromethyl)phenyl]methyl]-2-(2-furyl)pyrimidine-5-carboxamide]
14 | – | 40 | – | 1230 | 4480 | Cc1cccnc1C(C)NC(=O)c1cnc(-c2ccco2)nc1N (centres unmarked) [Example 5.57, 4-Amino-2-(2-furyl)-N-[1-(3-methyl-2-pyridyl)ethyl]pyrimidine-5-carboxamide]
15 | – | 105 | 2120 | – | – | Nc1nc(-c2ccco2)ncc1C(=O)NCc1ncccn1 [Example 5.58, 4-Amino-2-(2-furyl)-N-(pyrimidin-2-ylmethyl)pyrimidine-5-carboxamide]
16 | – | 236 | – | 4610 | – | Nc1nc(-c2ccco2)ncc1C(=O)NCc1nccc(C(F)(F)F)n1 [Example 5.59, 4-Amino-2-(2-furyl)-N-[[4-(trifluoromethyl)pyrimidin-2-yl]methyl]pyrimidine-5-carboxamide]
17 | – | 54 | – | 1470 | 4080 | Nc1nc(-c2ccco2)ncc1C(=O)N[C@H](CO)c1ccccc1 [Example 5.61, 4-Amino-2-(2-furyl)-N-[(1S)-2-hydroxy-1-phenyl-ethyl]pyrimidine-5-carboxamide]
18 | 96 | 96 | 378 | – | – | COc1cccc(CNC(=O)c2cnc(-c3cccc(F)c3)nc2N)c1OC [Example 10.10, 4-Amino-N-[(2,3-dimethoxyphenyl)methyl]-2-(3-fluorophenyl)pyrimidine-5-carboxamide]
19 | 744 | 744 | – | 202 | 740 | Cc1cccnc1CNC(=O)c1cnc(-c2ccc(F)cc2)nc1N [Example 14, 4-Amino-2-(4-fluorophenyl)-N-[(3-methyl-2-pyridyl)methyl]pyrimidine-5-carboxamide]
20 | – | 40 | 7170 | – | – | Cc1cccnc1CNC(=O)c1cnc(-c2nccs2)nc1N [Example 16.1, 4-Amino-N-[(3-methyl-2-pyridyl)methyl]-2-thiazol-2-yl-pyrimidine-5-carboxamide]
21 | 105 | 105 | – | 675 | 871 | Cc1cccnc1CNC(=O)c1c(N)nc(-c2ccco2)nc1-n1cccn1 [Example 19, 4-Amino-2-(2-furyl)-N-[(3-methyl-2-pyridyl)methyl]-6-pyrazol-1-yl-pyrimidine-5-carboxamide]
22 | – | 287 | – | 6700 | 7550 | Cc1cccnc1CNC(=O)c1c(N)nc(-c2ccco2)nc1OCCN1CCNCC1 [Example 23.2, 4-Amino-2-(2-furyl)-N-[(3-methyl-2-pyridyl)methyl]-6-(2-piperazin-1-ylethoxy)pyrimidine-5-carboxamide]
23 | – | 1.08 | – | 611 | 22 | CC(C)n1ncnc1CNC(=O)c1c(N)nc(-c2cccc(C#N)c2)nc1OCCF [Example 24.4, 4-Amino-2-(3-cyanophenyl)-6-(2-fluoroethoxy)-N-[(2-isopropyl-1,2,4-triazol-3-yl)methyl]pyrimidine-5-carboxamide]
24 | – | 0.1 | – | 28.5 | 3.8 | Cc1cccnc1CNC(=O)c1c(N)nc(-c2cccc(C#N)c2)nc1OCCF [Example 24.8, 4-Amino-2-(3-cyanophenyl)-6-(2-fluoroethoxy)-N-[(3-methyl-2-pyridyl)methyl]pyrimidine-5-carboxamide]

Source: patent publication US20200339548A1, “PYRIMIDINE DERIVATIVES AND THEIR USE FOR THE TREATMENT OF CANCER” (Adorx Therapeutics Limited, priority 2017, published 2020)
